In patent US9365533B2, “Coumarin derivative” (NIPPON ZOKI PHARMACEUTICAL CO., LTD., priority 2012, dated 2016):

Tests used:
HFLS-OA cells = assay: Suppressive action to TNF-α-induced proliferation of synovial cells (HFLS-OA), BrdU ELISA; format: cell-based; conditions: 200 μmol/L test substance, human recombinant TNF-α 10 ng/mL, 5 days, BrdU incorporation increase by TNF-α = 100%; for activity at 200 µM: Synovial cell, 120 h, read-out: Synovial Cell Proliferation Rate (%)
[1] = test system: cartilage pieces of bovine metacarpophalangeal joint; assay: Suppressive action to cartilage destruction: release of sGAG induced by IL-1α from cartilage pieces; format: cell-based; conditions: 25 μmol/L test substance, 2 h pretreatment, human recombinant IL-1α 3 ng/mL, 4 days at 37° C.; for inhibition at 25 µM: Bos taurus, 96 h, read-out: sGAG Releasing Suppressive Rate (%)
Experimental: Evaluation of Suppressive Action to Cartilage Destruction [Release of sGAG Induced by Interleukin-1α (IL-1α)]
(1) Incubation of Cartilage Pieces
Each four cartilage pieces of bovine metacarpophalangeal joint were placed in each well of a 48-well plate and pretreated for 2 hours with a basal medium [D-MEM (Dulbecco's Modified Eagle Medium) containing 2 mmol/L of glutamine, 25 mmol/L of Hepes, 100 μg/mL of streptomycin, 100 IU/mL of penicillin and 5.6 μg/mL of amphotericin B] containing 25 μmol/L of a test substance. Human recombinant IL-1α (3 ng/mL) was added thereto followed by incubating at 37° C. for 4 days in a CO2 incubator set at 5 vol % of CO2. Culture supernatant and cartilage pieces were recovered and stored by freezing until the measurement for each of them.
(2) Measurement of the Amount of sGAG and Calculation of the Suppressive Rate for the Release of sGAG
The recovered cartilage pieces were treated with a papain solution [containing 1 mg/mL of papain, 100 mmol/L of sodium phosphate (pH 6.5), 5 mmol/L of L-cysteine and 5 mmol/L of disodium ethylenediaminetetraacetate (EDTA)] at 65° C. for about 16 hours to solubilize. Amount of sGAG in the resulting extract was measured using an sGAG Alcian Blue Binding Kit (Wieslab AB) which is a quantitative kit to which a Alcian blue staining protocol is applied. sGAG in the culture supernatant after the incubation was measured without subjecting to a papain treatment. Each releasing rate of sGAG was determined by the following formula to calculate the suppressive rate for the release of sGAG. Releasing rate (%) of sGAG={(Total sGAG amount in the culture supernatant)/[(Total sGAG amount in the culture supernatant)+(Total sGAG amount in the cartilage pieces)]}×100 Suppressive rate (%) for release of sGAG={[Releasing rate of sGAG (IL-1α stimulation)−Releasing rate of sGAG (Test substance)]/[Releasing rate of sGAG (IL-1α stimulation)−Releasing rate of sGAG (Non-stimulation)]}×100

SMILES | activity at 200 µM (HFLS-OA cells) [%] | inhibition at 25 µM [1] [%] | Synovial Cell Proliferation Rate (%) (HFLS-OA cells) | sGAG Releasing Suppressive Rate (%) [1] [%]
O=c1oc2c(OS(=O)(=O)c3ccccc3)cccc2cc1NS(=O)(=O)c1ccc(Cl)cc1 [Compound 29, 3-[(4-Chlorophenyl)sulfonylamino]-2-oxochromen-8-yl benzenesulfonate] | -31.3 | 121 | – | –
O=c1oc2c(OS(=O)(=O)c3ccc(-c4ccccc4)cc3)cccc2cc1NS(=O)(=O)c1cccc([N+](=O)[O-])c1 [Compound 62, 3-[(3-Nitrophenyl)sulfonylamino]-2-oxochromen-8-yl 4-phenylbenzenesulfonate] | -49.2 | 140 | – | –
O=c1oc2c(OS(=O)(=O)c3ccc(C(F)(F)F)cc3)cccc2cc1NS(=O)(=O)c1cccc(Br)c1 [Compound 58, 3-[(3-Bromophenyl)sulfonylamino]-2-oxochromen-8-yl 4-(trifluoromethyl)benzenesulfonate] | -42.8 | 129 | – | –
Nc1ccc(S(=O)(=O)Nc2cc3cccc(OS(=O)(=O)c4cccc(C(F)(F)F)c4)c3oc2=O)cc1 [Compound 47, 3-[(4-Aminophenyl)sulfonylamino]-2-oxochromen-8-yl 3-(trifluoromethyl)benzenesulfonate] | -40.1 | 69 | – | –
CS(=O)(=O)Oc1cccc2cc(NS(=O)(=O)c3cccc(Br)c3)c(=O)oc12 [Compound 37, 3-[(3-Bromophenyl)sulfonylamino)]-2-oxochromen-8-yl methanesulfonate] | – | – | −22.6 | 17
O=c1oc2c(OS(=O)(=O)c3cccc(C(F)(F)F)c3)cccc2cc1NS(=O)(=O)c1cccc(C(F)(F)F)c1 [Compound 33, 2-Oxo-3-[[3-(trifluoromethyl)phenyl]sulfonylamino]-chromen-8-yl 3-(trifluoromethyl)benzenesulfonate] | -40 | 147 | – | –
N#Cc1cccc(S(=O)(=O)Nc2cc3cccc(OS(=O)(=O)c4cccc(C#N)c4)c3oc2=O)c1 [Compound 14, 3-[(3-Cyanophenyl)sulfonylamino]-2-oxochromen-8-yl 3-cyanobenzenesulfonate] | -60.3 | 66 | – | –
O=c1oc2c(OS(=O)(=O)c3cccc(Br)c3)cccc2cc1NS(=O)(=O)c1ccc(C(F)(F)F)cc1 [Compound 61, 2-Oxo-3-[[4-(trifluoromethyl)phenyl]sulfonylamino]-chromen-8-yl 3-bromobenzenesulfonate] | -40.6 | 140 | – | –
N#Cc1ccc(S(=O)(=O)Nc2cc3cccc(OS(=O)(=O)c4ccccc4)c3oc2=O)cc1 [Compound 21, 3-[(4-Cyanophenyl)sulfonylamino]-2-oxochromen-8-yl benzenesulfonate] | -41.2 | 69 | – | –
O=c1oc2c(OS(=O)(=O)c3cccc(C(F)(F)F)c3)cccc2cc1NS(=O)(=O)c1cccc(Br)c1 [Compound 56, 3-[(3-Bromophenyl)sulfonylamino]-2-oxochromen-8-yl 3-(trifluoromethyl)benzenesulfonate] | -44.4 | 133 | – | –
O=c1oc2c(OS(=O)(=O)c3cccc(C(F)(F)F)c3)cccc2cc1NS(=O)(=O)c1ccc([N+](=O)[O-])cc1 [Compound 42, 3-[(4-Nitrophenyl)sulfonylamino]-2-oxochromen-8-yl 3-(trifluoromethyl)benzenesulfonate] | -35.5 | 163 | – | –
O=c1oc2c(OS(=O)(=O)c3cccc([N+](=O)[O-])c3)cccc2cc1NS(=O)(=O)c1cccc(C(F)(F)F)c1 [Compound 50, 2-Oxo-3-[[3-(trifluoromethyl)phenyl]sulfonylamino]-chromen-8-yl 3-nitrobenzenesulfonate] | -46.4 | 163 | – | –
O=c1oc2c(OS(=O)(=O)c3cccc(C(F)(F)F)c3)cccc2cc1NS(=O)(=O)c1cccc([N+](=O)[O-])c1 [Compound 51] | – | – | −36.5 | 141
O=c1oc2c(OS(=O)(=O)c3ccc([N+](=O)[O-])cc3)cccc2cc1NS(=O)(=O)c1cccc(C(F)(F)F)c1 [Compound 41, 2-Oxo-3-[[3-(trifluoromethyl)phenyl]sulfonylamino]-chromen-8-yl 4-nitrobenzenesulfonate] | -37.7 | 172 | – | –
O=c1oc2c(OS(=O)(=O)c3cccc(Br)c3)cccc2cc1NS(=O)(=O)c1cccnc1 [Compound 38, 2-Oxo-3-(3-pyridylsulfonylamino)chromen-8-yl 3-bromobenzenesulfonate] | -31.2 | 67 | – | –
O=c1oc2c(OS(=O)(=O)c3ccccc3)cccc2cc1NS(=O)(=O)c1cccc([N+](=O)[O-])c1 [Compound 24, 3-[(3-Nitrophenyl)sulfonylamino]-2-oxochromen-8-yl benzenesulfonate] | -40 | 90 | – | –
O=c1oc2c(OS(=O)(=O)c3ccccc3)cccc2cc1NS(=O)(=O)c1cccc(C(F)(F)F)c1 [Compound 28, 2-Oxo-3-[[3-(trifluoromethyl)phenyl]sulfonylamino]-chromen-8-yl benzenesulfonate] | -33.7 | 140 | – | –
